Experimental data taken from ChEMBL document CHEMBL1681651, “A broad spectrum anticancer nucleoside with selective toxicity against human colon cells in vitro” (2011).

How the values were obtained:
Type in all cases: functional
A498 = assay: Growth inhibition of human A498 cells assessed as cell growth at 1 uM after 48 hrs by SRB assay; conditions: A498, 48 h, read-out: Activity
RXF 393 = assay: Growth inhibition of human RXF393 cells assessed as cell growth at 1 uM after 48 hrs by SRB assay; conditions: RXF 393, 48 h, read-out: Activity
T47D = assay: Growth inhibition of human T47D cells assessed as cell growth at 1 uM after 48 hrs by SRB assay; conditions: read-out: Activity
CCRF-CEM = assay: Growth inhibition of human CCRF-CEM cells after 48 hrs by […] growth inhibition assay
HCC 2998 [1] = assay: Growth inhibition of human HCC2998 cells after 48 hrs by […] growth inhibition assay; conditions: HCC 2998, 48 h
HCT-15 [2] = assay: Growth inhibition of human HCT15 cells after 48 hrs by […] growth inhibition assay; conditions: HCT-15, 48 h
M14 [3] = assay: Growth inhibition of human M14 cells after 48 hrs by […] growth inhibition assay; conditions: M14, 48 h
UACC-257 = assay: Growth inhibition of human UACC257 cells after 48 hrs by […] growth inhibition assay; conditions: UACC-257, 48 h
U-251 = assay: Growth inhibition of human U251 cells after 48 hrs by […] growth inhibition assay; conditions: U-251, 48 h
SN12C = assay: Growth inhibition of human SN12C cells after 48 hrs by […] growth inhibition assay
[4] = Growth inhibition of human […] cells assessed as cell growth at 0.1 uM after 48 hrs by SRB assay; conditions: read-out: Activity
NCI-H522 = assay: Growth inhibition of human NCI-H522 cells assessed as cell growth at 0.1 uM after 48 hrs by SRB assay; conditions: NCI-H522, 48 h, read-out: Activity
HCC 2998 [5] = assay: Growth inhibition of human HCC2998 cells assessed as cell growth at 0.1 uM after 48 hrs by SRB assay; conditions: HCC 2998, 48 h, read-out: Activity
HCT-15 [6] = assay: Growth inhibition of human HCT15 cells assessed as cell growth at 0.1 uM after 48 hrs by SRB assay; conditions: HCT-15, 48 h, read-out: Activity
DU-145 [7] = assay: Growth inhibition of human DU145 cells assessed as cell growth at 0.1 uM after 48 hrs by SRB assay; conditions: DU-145, 48 h, read-out: Activity
MDA-MB-435 [8] = assay: Growth inhibition of human MDA-MB-435 cells assessed as cell growth at 0.1 uM after 48 hrs by SRB assay; conditions: MDA-MB-435, 48 h, read-out: Activity
SK-MEL-2 = assay: Growth inhibition of human SK-MEL-2 cells assessed as cell growth at 10 uM after 48 hrs by SRB assay; conditions: SK-MEL-2, 48 h, read-out: Activity
UACC-62 [9] = assay: Growth inhibition of human UACC62 cells assessed as cell growth at 10 uM after 48 hrs by SRB assay; conditions: UACC-62, 48 h, read-out: Activity
NCI-H226 = assay: Growth inhibition of human NCI-H226 cells assessed as cell growth at 100 uM after 48 hrs by SRB assay; conditions: NCI-H226, 48 h, read-out: Activity
NCI-H322M [10] = assay: Growth inhibition of human NCI-H322M cells assessed as cell growth at 100 uM after 48 hrs by SRB assay; conditions: read-out: Activity
SF-539 = assay: Growth inhibition of human SF539 cells assessed as cell growth at 100 uM after 48 hrs by SRB assay; conditions: SF-539, 48 h, read-out: Activity
M14 [11] = assay: Growth inhibition of human M14 cells assessed as cell growth at 100 uM after 48 hrs by SRB assay; conditions: M14, 48 h, read-out: Activity
UACC-62 [12] = assay: Growth inhibition of human UACC62 cells assessed as cell growth at 100 uM after 48 hrs by SRB assay; conditions: UACC-62, 48 h, read-out: Activity
MDA-MB-435 [13] = assay: Growth inhibition of human MDA-MB-435 cells assessed as cell growth at 100 uM after 48 hrs by SRB assay; conditions: MDA-MB-435, 48 h, read-out: Activity
[14] = Growth inhibition of human […] cells assessed as cell growth at 1 mM after 48 hrs by SRB assay; conditions: read-out: Activity
NCI-H322M [15] = assay: Growth inhibition of human NCI-H322M cells assessed as cell growth at 1 mM after 48 hrs by SRB assay; conditions: read-out: Activity
HT-29 = assay: Growth inhibition of human HT-29 cells assessed as cell growth at 1 mM after 48 hrs by SRB assay; conditions: HT-29, 48 h, read-out: Activity
SK-MEL-5 = assay: Growth inhibition of human SK-MEL-5 cells assessed as cell growth at 1 mM after 48 hrs by SRB assay; conditions: SK-MEL-5, 48 h, read-out: Activity
OVCAR-8 = assay: Growth inhibition of human OVCAR8 cells assessed as cell growth at 1 mM after 48 hrs by SRB assay; conditions: OVCAR-8, 48 h, read-out: Activity
DU-145 [16] = assay: Growth inhibition of human DU145 cells assessed as cell growth at 1 mM after 48 hrs by SRB assay; conditions: DU-145, 48 h, read-out: Activity
EKVX = assay: Growth inhibition of human EKVX cells assessed as cell growth at 1 uM after 48 hrs by SRB assay; conditions: read-out: Activity
HOP-62 = assay: Growth inhibition of human HOP62 cells assessed as cell growth at 1 uM after 48 hrs by SRB assay; conditions: HOP-62, 48 h, read-out: Activity
[17] = read-out: LC50 (the source's name)
[18] = read-out: pLC50 (the source's name) (converted)

SMILES: CNC(=O)NC[C@H]1O[C@@H](n2cnc3c(NC(=O)Nc4ccccc4)ncnc32)[C@H](O[Si](C)(C)C(C)(C)C)[C@@H]1CC(=O)N(C)OC
- growth at 1 µM (A498): 96%
- growth at 1 µM (RXF 393): 100%
- growth at 1 µM (T47D): 89%
- GI50 (CCRF-CEM; read-out: GI50): 6.37 µM
- LC50 (lethal concentration, 50% net cell kill) (CCRF-CEM; read-out: LC50): > 100 µM
- TGI (CCRF-CEM; read-out: TGI): > 100 µM
- GI50 (CCRF-CEM; read-out: pGI50 (converted)): 6.31 µM
- LC50 (lethal concentration, 50% net cell kill) (CCRF-CEM; read-out: pLC50 (converted)): > 100 µM
- TGI (CCRF-CEM; read-out: pTGI (converted)): > 100 µM
- GI50 (HCC 2998 [1]; read-out: GI50): 30.6 µM
- CC50 (HCC 2998 [1]; [17]): > 100 µM
- TGI (HCC 2998 [1]; read-out: TGI): > 100 µM
- GI50 (HCC 2998 [1]; read-out: pGI50 (converted)): 30.9 µM
- CC50 (HCC 2998 [1]; [18]): > 100 µM
- TGI (HCC 2998 [1]; read-out: pTGI (converted)): > 100 µM
- GI50 (HCT-15 [2]; read-out: GI50): 6.47 µM
- CC50 (HCT-15 [2]; [17]): > 100 µM
- TGI (HCT-15 [2]; read-out: TGI): > 100 µM
- GI50 (HCT-15 [2]; read-out: pGI50 (converted)): 6.46 µM
- CC50 (HCT-15 [2]; [18]): > 100 µM
- TGI (HCT-15 [2]; read-out: pTGI): > 100 µM
- GI50 (M14 [3]; read-out: GI50): 15.2 µM
- CC50 (M14 [3]; [17]): > 100 µM
- TGI (M14 [3]; read-out: TGI): > 100 µM
- GI50 (M14 [3]; read-out: pGI50 (converted)): 15.1 µM
- CC50 (M14 [3]; [18]): > 100 µM
- TGI (M14 [3]; read-out: pTGI (converted)): > 100 µM
- GI50 (UACC-257; read-out: GI50): 22.6 µM
- CC50 (UACC-257; [17]): > 100 µM
- TGI (UACC-257; read-out: TGI): > 100 µM
- GI50 (UACC-257; read-out: pGI50 (converted)): 22.4 µM
- CC50 (UACC-257; [18]): > 100 µM
- TGI (UACC-257; read-out: pTGI (converted)): > 100 µM
- GI50 (U-251; read-out: GI50): 5.66 µM
- CC50 (U-251; [17]): > 100 µM
- TGI (U-251; read-out: TGI): > 100 µM
- GI50 (U-251; read-out: pGI50 (converted)): 5.62 µM
- CC50 (U-251; [18]): > 100 µM
- TGI (U-251; read-out: pTGI (converted)): > 100 µM
- GI50 (SN12C; read-out: GI50): 85.3 µM
- CC50 (SN12C; [17]): > 100 µM
- TGI (SN12C; read-out: TGI): > 100 µM
- GI50 (SN12C; read-out: pGI50 (converted)): 85.1 µM
- CC50 (SN12C; [18]): > 100 µM
- TGI (SN12C; read-out: pTGI (converted)): > 100 µM
- growth at 0.1 µM [4]: 80%
- growth at 0.1 µM (NCI-H522): 90%
- growth at 0.1 µM (HCC 2998 [5]): 102%
- growth at 0.1 µM (HCT-15 [6]): 96%
- growth at 0.1 µM (DU-145 [7]): 107%
- growth at 0.1 µM (MDA-MB-435 [8]): 100%
- growth at 10 µM (SK-MEL-2): 92%
- growth at 10 µM (UACC-62 [9]): 96%
- growth at 100 µM (NCI-H226): 66%
- growth at 100 µM (NCI-H322M [10]): 90%
- growth at 100 µM (SF-539): 65%
- growth at 100 µM (M14 [11]): 57%
- growth at 100 µM (UACC-62 [12]): 69%
- growth at 100 µM (MDA-MB-435 [13]): 51%
- growth at 1000 µM [14]: -16%
- growth at 1000 µM (NCI-H322M [15]): 73%
- growth at 1000 µM (HT-29): 17%
- growth at 1000 µM (SK-MEL-5): 11%
- growth at 1000 µM (OVCAR-8): 22%
- growth at 1000 µM (DU-145 [16]): 16%
- growth at 1 µM (EKVX): 95%
- growth at 1 µM (HOP-62): 88%
